Test results published in the NIST ThermoML archive (doi:10.1021/je900759f).
± gives the expanded uncertainty stated by the source.

Test: molar heat capacity at constant pressure
Settings: 101.33 kPa, Crystal, Vacuum adiabatic calorimetry

O=C([O-])c1ccccc1C(=O)O.[K+] [potassium 2-carboxybenzoate]
molar heat capacity at constant pressure (78.74 K): 81.22 ± 0.51 J/K/mol
molar heat capacity at constant pressure (81.08 K): 82.76 ± 0.52 J/K/mol
molar heat capacity at constant pressure (83.42 K): 85 ± 0.53 J/K/mol
molar heat capacity at constant pressure (85.62 K): 86.29 ± 0.54 J/K/mol
molar heat capacity at constant pressure (88.11 K): 88.06 ± 0.55 J/K/mol
molar heat capacity at constant pressure (90.01 K): 90.07 ± 0.58 J/K/mol
molar heat capacity at constant pressure (92.06 K): 91.25 ± 0.58 J/K/mol
molar heat capacity at constant pressure (94.25 K): 92.66 ± 0.59 J/K/mol
molar heat capacity at constant pressure (96.3 K): 94.19 ± 0.6 J/K/mol
molar heat capacity at constant pressure (98.21 K): 95.73 ± 0.61 J/K/mol
molar heat capacity at constant pressure (100.26 K): 97.26 ± 0.62 J/K/mol
molar heat capacity at constant pressure (102.01 K): 98.56 ± 0.63 J/K/mol
molar heat capacity at constant pressure (104.21 K): 100.09 ± 0.64 J/K/mol
molar heat capacity at constant pressure (105.82 K): 101.39 ± 0.64 J/K/mol
molar heat capacity at constant pressure (107.72 K): 102.68 ± 0.65 J/K/mol
molar heat capacity at constant pressure (109.48 K): 103.75 ± 0.66 J/K/mol
molar heat capacity at constant pressure (111.23 K): 104.92 ± 0.67 J/K/mol
molar heat capacity at constant pressure (112.99 K): 106.1 ± 0.67 J/K/mol
molar heat capacity at constant pressure (114.45 K): 107.52 ± 0.68 J/K/mol
molar heat capacity at constant pressure (116.5 K): 108.7 ± 0.69 J/K/mol
molar heat capacity at constant pressure (118.55 K): 109.99 ± 0.7 J/K/mol
molar heat capacity at constant pressure (120.9 K): 111.65 ± 0.71 J/K/mol
molar heat capacity at constant pressure (122.65 K): 112.71 ± 0.71 J/K/mol
molar heat capacity at constant pressure (126.02 K): 114.95 ± 0.72 J/K/mol
molar heat capacity at constant pressure (128.9 K): 117.28 ± 0.74 J/K/mol
molar heat capacity at constant pressure (131.81 K): 119.26 ± 0.75 J/K/mol
molar heat capacity at constant pressure (134.65 K): 120.84 ± 0.76 J/K/mol
molar heat capacity at constant pressure (137.63 K): 123.15 ± 0.77 J/K/mol
molar heat capacity at constant pressure (140.07 K): 124.62 ± 0.78 J/K/mol
molar heat capacity at constant pressure (143.44 K): 126.5 ± 0.79 J/K/mol
molar heat capacity at constant pressure (146.3 K): 128.75 ± 0.81 J/K/mol
molar heat capacity at constant pressure (149.29 K): 130.28 ± 0.82 J/K/mol
molar heat capacity at constant pressure (152.07 K): 132.04 ± 0.83 J/K/mol
molar heat capacity at constant pressure (155.1 K): 134.02 ± 0.84 J/K/mol
molar heat capacity at constant pressure (158.03 K): 135.88 ± 0.85 J/K/mol
molar heat capacity at constant pressure (161.04 K): 137.98 ± 0.86 J/K/mol
molar heat capacity at constant pressure (163.86 K): 139.4 ± 0.87 J/K/mol
molar heat capacity at constant pressure (166.86 K): 141.12 ± 0.88 J/K/mol
molar heat capacity at constant pressure (169.72 K): 142.95 ± 0.89 J/K/mol
molar heat capacity at constant pressure (172.65 K): 144.78 ± 0.9 J/K/mol
molar heat capacity at constant pressure (175.6 K): 146.73 ± 0.91 J/K/mol
molar heat capacity at constant pressure (178.52 K): 148.14 ± 0.92 J/K/mol
molar heat capacity at constant pressure (181.46 K): 150.06 ± 0.93 J/K/mol
molar heat capacity at constant pressure (185.51 K): 152.18 ± 0.95 J/K/mol
molar heat capacity at constant pressure (189.58 K): 154.71 ± 0.96 J/K/mol
molar heat capacity at constant pressure (192.49 K): 156.69 ± 0.97 J/K/mol
molar heat capacity at constant pressure (195.39 K): 157.97 ± 0.98 J/K/mol
molar heat capacity at constant pressure (198.33 K): 160.11 ± 0.99 J/K/mol
molar heat capacity at constant pressure (201.39 K): 161.41 ± 1 J/K/mol
molar heat capacity at constant pressure (204.34 K): 163.34 ± 1 J/K/mol
molar heat capacity at constant pressure (207.27 K): 164.59 ± 1 J/K/mol
molar heat capacity at constant pressure (210.19 K): 166.59 ± 1 J/K/mol
molar heat capacity at constant pressure (213.12 K): 168.36 ± 1 J/K/mol
molar heat capacity at constant pressure (216.13 K): 169.91 ± 1.1 J/K/mol
molar heat capacity at constant pressure (219.11 K): 171.34 ± 1.1 J/K/mol
molar heat capacity at constant pressure (222.05 K): 173.08 ± 1.1 J/K/mol
molar heat capacity at constant pressure (224.97 K): 174.49 ± 1.1 J/K/mol
molar heat capacity at constant pressure (228.05 K): 176.26 ± 1.1 J/K/mol
molar heat capacity at constant pressure (230.83 K): 177.91 ± 1.1 J/K/mol
molar heat capacity at constant pressure (233.76 K): 178.97 ± 1.1 J/K/mol
molar heat capacity at constant pressure (236.83 K): 180.98 ± 1.1 J/K/mol
molar heat capacity at constant pressure (239.77 K): 182.23 ± 1.1 J/K/mol
molar heat capacity at constant pressure (243.54 K): 184.12 ± 1.1 J/K/mol
molar heat capacity at constant pressure (247.46 K): 186.25 ± 1.1 J/K/mol
molar heat capacity at constant pressure (250.44 K): 188.14 ± 1.2 J/K/mol
molar heat capacity at constant pressure (253.42 K): 189.68 ± 1.2 J/K/mol
molar heat capacity at constant pressure (256.45 K): 190.76 ± 1.2 J/K/mol
molar heat capacity at constant pressure (259.37 K): 192.3 ± 1.2 J/K/mol
molar heat capacity at constant pressure (262.36 K): 193.82 ± 1.2 J/K/mol
molar heat capacity at constant pressure (265.34 K): 195.71 ± 1.2 J/K/mol
molar heat capacity at constant pressure (268.16 K): 196.89 ± 1.2 J/K/mol
molar heat capacity at constant pressure (271.14 K): 198.67 ± 1.2 J/K/mol
molar heat capacity at constant pressure (274.12 K): 200.21 ± 1.2 J/K/mol
molar heat capacity at constant pressure (277.08 K): 201.26 ± 1.2 J/K/mol
molar heat capacity at constant pressure (280.08 K): 203.28 ± 1.2 J/K/mol
molar heat capacity at constant pressure (283.06 K): 204.58 ± 1.3 J/K/mol
molar heat capacity at constant pressure (286.04 K): 205.65 ± 1.3 J/K/mol
molar heat capacity at constant pressure (289.09 K): 207.51 ± 1.3 J/K/mol
molar heat capacity at constant pressure (292.02 K): 208.57 ± 1.3 J/K/mol
molar heat capacity at constant pressure (294.94 K): 210.1 ± 1.3 J/K/mol
molar heat capacity at constant pressure (298.02 K): 211.04 ± 1.3 J/K/mol
molar heat capacity at constant pressure (300.8 K): 213.17 ± 1.3 J/K/mol
molar heat capacity at constant pressure (303.87 K): 214.11 ± 1.3 J/K/mol
molar heat capacity at constant pressure (306.8 K): 215.52 ± 1.3 J/K/mol
molar heat capacity at constant pressure (309.73 K): 216.94 ± 1.3 J/K/mol
molar heat capacity at constant pressure (312.51 K): 218.12 ± 1.3 J/K/mol
molar heat capacity at constant pressure (315.58 K): 219.65 ± 1.4 J/K/mol
molar heat capacity at constant pressure (318.36 K): 221.3 ± 1.4 J/K/mol
molar heat capacity at constant pressure (321.29 K): 222.01 ± 1.4 J/K/mol
molar heat capacity at constant pressure (324.37 K): 223.43 ± 1.4 J/K/mol
molar heat capacity at constant pressure (327.29 K): 224.96 ± 1.4 J/K/mol
molar heat capacity at constant pressure (330.37 K): 226.61 ± 1.4 J/K/mol
molar heat capacity at constant pressure (333.44 K): 228.14 ± 1.4 J/K/mol
molar heat capacity at constant pressure (336.37 K): 229.67 ± 1.4 J/K/mol
molar heat capacity at constant pressure (339.3 K): 230.85 ± 1.4 J/K/mol
molar heat capacity at constant pressure (342.37 K): 232.15 ± 1.4 J/K/mol
molar heat capacity at constant pressure (345.3 K): 233.33 ± 1.4 J/K/mol
molar heat capacity at constant pressure (348.37 K): 234.39 ± 1.4 J/K/mol
molar heat capacity at constant pressure (351.3 K): 236.4 ± 1.4 J/K/mol
molar heat capacity at constant pressure (354.23 K): 237.46 ± 1.5 J/K/mol
molar heat capacity at constant pressure (357.16 K): 239.23 ± 1.5 J/K/mol
molar heat capacity at constant pressure (360.08 K): 240.52 ± 1.5 J/K/mol
molar heat capacity at constant pressure (363.01 K): 241.35 ± 1.5 J/K/mol
molar heat capacity at constant pressure (365.94 K): 243 ± 1.5 J/K/mol
molar heat capacity at constant pressure (368.87 K): 243.71 ± 1.5 J/K/mol
molar heat capacity at constant pressure (371.83 K): 244.81 ± 1.5 J/K/mol
molar heat capacity at constant pressure (374.87 K): 246.77 ± 1.5 J/K/mol
molar heat capacity at constant pressure (377.94 K): 248.3 ± 1.5 J/K/mol
molar heat capacity at constant pressure (380.93 K): 249.42 ± 1.5 J/K/mol
molar heat capacity at constant pressure (383.91 K): 250.96 ± 1.5 J/K/mol
molar heat capacity at constant pressure (386.89 K): 252.02 ± 1.6 J/K/mol
molar heat capacity at constant pressure (390.03 K): 253.44 ± 1.6 J/K/mol
molar heat capacity at constant pressure (393.01 K): 254.98 ± 1.6 J/K/mol
molar heat capacity at constant pressure (395.98 K): 255.93 ± 1.6 J/K/mol
